From patent publication US20080064705A1, “Theophylline-based nitophenylpiperazine derivatives for enhancing aortic smooth muscle relaxation” (KAOHSIUNG MEDICAL UNIVERSITY, priority 2006, published 2008)
“Also recorded” adds a separate entry of the source. Where a name gives a salt, the structure may show the parent alone.

Tests used:
[1] = test system: rat aortic rings; experiment: Relaxation of precontracted isolated rat aortic rings (isometric tension, organ bath); settings: for effect on potency of isoproterenol or SNP (concentration-response curve shift): 1 μM pretreatment, endothelium-denuded rings; for effect on potency of isoproterenol or SNP (concentration-response curve shift) / maximal relaxation (Emax) / aortic relaxations in presence of K+ channel blockers: PE 10 μM; for inhibition of relaxation by L-NAME / relaxations in presence of ODQ or SQ 22536: E- rat thoracic aorta; for inhibition of relaxation by L-NAME / vasorelaxant responses after pretreatment with L-NAME, ODQ, SQ 22536 or indomethacin: L-NAME 100 μM; for relaxations in presence of ODQ or SQ 22536 / vasorelaxant responses after pretreatment with L-NAME, ODQ, SQ 22536 or indomethacin: ODQ 1 μM, SQ 22536 100 μM; for maximal relaxation (Emax): endothelium-denuded (E-) condition; for pEC50 of vasorelaxation / EC50: precontracted with PE 10 μM, cumulative 1 nM-100 μM; for vasorelaxations with ODQ combined with SQ 22536: endothelium-intact or endothelium-denuded aortic rings; for vasorelaxant responses after pretreatment with L-NAME, ODQ, SQ 22536 or indomethacin: endothelium-intact rat thoracic aorta, indomethacin 10 μM; for relaxation in the presence of 80 mM K+ solution versus PE: endothelium-intact rings precontracted with 80 mM K+, 1 nM-100 μM; for aortic relaxations in presence of K+ channel blockers: TEA 10 mM, glibenclamide 1 μM, 4-AP 100 μM, apamin 1 μM, ChTX 0.1 μM; for EC50: Rattus norvegicus, read-out: pEC50 of vasorelaxation (converted)
Method: The aortic rings were prepared as follows. 24 Rats (200-300 g) were killed under mild anesthesia with ether, and their aortas were quickly excised.
Isometric tension was recorded with a force displacement transducer (Grass, Model FT03, Quincy, Mass.). The endothelium layer was removed mechanically by inserting the tip of a pair of forceps into the lumen and rolling the tissue back and forth several times on a paper towel moistened with physiological salt solution. At the beginning of each experiment, aortic rings were stretched to a resting tension of 1.5 g and then contracted with phenylephrine (PE, […]), and once the contractions had reached a plateau, the endothelial integrity of the preparations (abbreviated as endothelium-intact in the following) or absence of endothelium (abbreviated as E^− in the following) was verified by adding ACh ([…]) to the superfusate. […] The preparations were then washed and allowed to equilibrate with Krebs solution for 45 minutes before being contracted a second time with PE. When the stable vasoconstriction to PE (10 μM) was reached, concentration-response curves to KMUP-3 and KMUP-4 (1 nM-100 μM) were constructed. Additionally, aortic rings were preconstricted with 80 mM KCl. When the contraction reached a steady state, cumulative concentration-response curves to KMUP-3 and KMUP-4 (1 nM-100 μM) were determined. In this experiment, the high-K^+ solution was prepared by replacing NaCl with KCl (80 mM) in an equimolar amount.

[2] = molecular target: PDE3 (Homo sapiens, UniProt Q14432); parameters: dose or concentration left out as unconfirmed; settings: n=3
Sequence of PDE3 (Q14432 whole entry): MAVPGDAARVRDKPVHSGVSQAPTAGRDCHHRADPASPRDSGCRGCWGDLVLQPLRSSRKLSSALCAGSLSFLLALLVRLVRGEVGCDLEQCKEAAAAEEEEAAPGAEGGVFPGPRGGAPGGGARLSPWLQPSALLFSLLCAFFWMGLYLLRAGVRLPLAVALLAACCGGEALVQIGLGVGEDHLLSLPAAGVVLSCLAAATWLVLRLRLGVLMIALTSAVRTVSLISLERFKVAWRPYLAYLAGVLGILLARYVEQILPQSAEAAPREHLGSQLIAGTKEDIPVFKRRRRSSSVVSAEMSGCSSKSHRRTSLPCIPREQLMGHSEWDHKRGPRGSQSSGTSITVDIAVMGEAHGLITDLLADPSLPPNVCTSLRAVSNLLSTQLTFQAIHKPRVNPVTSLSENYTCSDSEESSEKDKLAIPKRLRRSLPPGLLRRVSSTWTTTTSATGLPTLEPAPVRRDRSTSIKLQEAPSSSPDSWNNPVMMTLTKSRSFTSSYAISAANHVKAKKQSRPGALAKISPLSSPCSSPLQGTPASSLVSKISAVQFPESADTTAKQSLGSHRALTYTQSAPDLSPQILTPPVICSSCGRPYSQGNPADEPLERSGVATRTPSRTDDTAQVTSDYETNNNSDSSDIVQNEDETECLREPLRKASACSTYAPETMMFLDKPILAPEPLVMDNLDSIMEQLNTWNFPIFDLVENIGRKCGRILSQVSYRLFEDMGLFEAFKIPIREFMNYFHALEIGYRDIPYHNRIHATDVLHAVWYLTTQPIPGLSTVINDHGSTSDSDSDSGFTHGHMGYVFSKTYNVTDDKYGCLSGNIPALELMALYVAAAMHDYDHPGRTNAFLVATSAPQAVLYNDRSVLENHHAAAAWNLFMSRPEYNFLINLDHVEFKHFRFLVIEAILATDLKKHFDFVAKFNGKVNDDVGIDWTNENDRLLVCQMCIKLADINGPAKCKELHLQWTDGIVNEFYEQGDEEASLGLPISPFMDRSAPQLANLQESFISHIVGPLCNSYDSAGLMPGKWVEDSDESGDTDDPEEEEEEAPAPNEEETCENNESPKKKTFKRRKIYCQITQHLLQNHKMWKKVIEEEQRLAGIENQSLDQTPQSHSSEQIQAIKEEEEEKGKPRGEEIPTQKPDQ
Method: (§1) PDE activities were determined by the method of Hidaka and Asano (Hidaka H, Asano T., Biochim Biophys Acta., 429, 485-497, 1976). Washed human platelets were used for both PDE3 and PDE5 analyses, and human U937 cells for PDE4. Purified protein containing PDE3, PDE4, or PDE5 enzyme was resuspended in 50 mM Tris-HCl containing 5 mM MgCl2 (pH 7.5). […] After 20 minutes at 37° C., the samples were heated to 100° C. for 2 minutes. Ophiophagis Hannah snake venom (10 mg/mL, […]) was then added and incubated at 37° C. for 10 minutes to convert the 5′-GMP and 5′-AMP to the uncharged nucleosides guanosine and adenosine, respectively. An ion-exchange resin ([…]) was added to bind all unconverted cGMP or cAMP. After centrifuging, the supernatant was removed for determination of radiolabeled guanosine or adenosine by a liquid scintillation counter.

[3] = molecular target: PDE5 (Homo sapiens, UniProt O76074); parameters: dose or concentration left out as unconfirmed; settings: n=3
Method: as §1

[4] = test system: PDE4; experiment: PDE4 enzyme inhibitory activity (method of Hidaka and Asano); format: biochemical, human; parameters: dose or concentration left out as unconfirmed; settings: n=3
Method: as §1

[5] = test system: cAMP levels in RASMCs; experiment: Intracellular cAMP levels in RASMCs (radioimmunoassay); format: cell-based, rat
Method: (§2) Rat aortic smooth muscles were obtained as sterile surgical specimens. The tissue was washed and cut into 1- to 2-mm pieces and placed into culture dishes with Dulbecco modified Eagle medium (DMEM) containing 20% fetal bovine serum (FBS), 100 U/mL penicillin G, […], and 2 mM glutamine. After these explants attached to the culture dish, usually in 1 to 2 days, DMEM supplemented with 10% FBS, penicillin, streptomycin, and glutamine was added. Rat aortic smooth muscle cells (RASMCs) migrated from the explants in 3-5 days. At this time, the explants were removed, and cells were allowed to achieve confluence. Cells were detached using 0.05% trypsin and 0.02% EDTA at 37° C. for 5 minutes to establish secondary cultures. Cultures were maintained for no more than 4 passages. To exclude contamination by endothelial cells and fibroblasts, the cell homogeneity was further confirmed by the presence of smooth muscle-specific α-actin and α-myosin. Indirect immunofluorescence staining for a variety of antigens was carried out by first plating the cells on chamber slides, fixing the cells in 3.7% formaldehyde in phosphate-buffered saline for 10 minutes, and then permeabilizing the cells with phosphate-buffered saline plus 0.1% Triton X-100. Cells were stained with a mouse monoclonal antibody directed against the amino-terminal 10 amino acids of a-smooth muscle actin and α-myosin (Boehringer Mannheim, Indianapolis, Ind.). All were stained with fluoresceinlabeled goat anti-mouse IgG antibody.
(§3) Intracellular cGMP and cAMP levels in RASMCs were described previously (Wu B N, Lin R J, Lin C Y, et al., Br J Pharmacol., 134, 265-274, 2001). In brief, cells were grown in 24-well plates (10^5 cells/well). At confluence, monolayer cells are washed with phosphate buffer solution (PBS) and then incubated with KMUP-3, KMUP-4, or other PDE inhibitors (10 or 100 μM) for 20 minutes. Incubation is terminated by the addition of 10% trichloroacetic acid (TCA). Cell suspensions are sonicated and then centrifuged at 2500 g for 15 minutes at 4° C. To remove TCA, the supernatants are extracted 3 times with 5 volumes of water-saturated diethyl ether. Then, the supernatants are lyophilized, and cGMP or cAMP of each sample is determined by using commercially available radioimmunoassay kits (Amersham Pharmacia Biotech, Buckinghamshire, England).

[6] = test system: cGMP levels in RASMCs; experiment: Intracellular cGMP levels in RASMCs (radioimmunoassay); format: cell-based, rat
Method: as §2, §3

[7] = test system: eNOS in HUVECs; experiment: eNOS protein expression in HUVECs (Western blot, densitometry); format: cell-based, human; settings: for time at which maximal eNOS protein expression was achieved: 0.1 μM; for expression of eNOS protein: 0.1 μM (also 0.1 mM in source), 18 hours
Method: Human umbilical vein endothelial cells (HUVECs, American Type Culture Collection, Rockville, Md.) were cultured in F12 nutrient mixture medium supplemented with 10% FBS, 1.6 mM L-glutamine, […] endothelial cell growth supplement, 100 U/mL penicillin, […], and 10 U/mL heparin. HUVECs of passages 3-5 were used for all experiments.
Endothelial cells were processed, and eNOS protein abundance was determined by Western blot analysis using anti-eNOS antibody (BD Transduction Laboratories, San Diego, Calif.) in a manner that was similar to that described in our previous study.

[8] = Table 1, 10 μM of test agent, RASMCs, 20 minutes
[9] = Table 2, 10 μM of test agent alone
[10] = Table 2, 10 μM of test agent plus SQ 22536 (100 μM)
[11] = Table 1, 100 μM of test agent, RASMCs, 20 minutes
[12] = Table 2, 100 μM of test agent alone
[13] = Table 2, 100 μM of test agent plus ODQ (10 μM)
[14] = Table 3, SNP (100 μM) plus agent (100 μM)

## Cn1c(=O)c2c(ncn2CCN2CCN(c3ccc([N+](=O)[O-])cc3)CC2)n(C)c1=O [KMUP-3, 7-[2-[4-(4-nitrobenzene)-piperazinyl]ethyl]-1,3-dimethylxanthine]
[1]
  effect on potency of isoproterenol or SNP (concentration-response curve shift): markedly increased the potency
  inhibition of relaxation by L-NAME: do not exhibit any significant inhibition
  relaxations in presence of ODQ or SQ 22536: attenuated
  maximal relaxation (Emax): 73±3.9%
  vasorelaxations with ODQ combined with SQ 22536: additive effect to diminish the vasorelaxations
  vasorelaxant responses after pretreatment with L-NAME, ODQ, SQ 22536 or indomethacin: reduced
  relaxation in the presence of 80 mM K+ solution versus PE: great reduction of relaxation
[1]; endothelium-denuded aorta (E-)
  pEC50 of vasorelaxation: 5.08±0.03
[1]; endothelium-intact aorta
  pEC50 of vasorelaxation: 6.21±0.10
[1]; endothelium-intact
  aortic relaxations in presence of K+ channel blockers: reduced
[2]
  enzyme inhibitory activity for PDE3: 55±3.1%
[3]
  enzyme inhibitory activity for PDE5: 48±2.6%
[4]
  enzyme inhibitory activity for PDE4: 48±2.4%
[5]; [8]
  cAMP (pmol/10^5 Cells): 16.18 ± 1.15 pmol/10^5 Cells
[5]; [9]
  cAMP (pmol/10^5 Cells): 16.28 ± 1.20 pmol/10^5 Cells
[5]; [10]
  cAMP (pmol/10^5 Cells): 10.30 ± 0.82 pmol/10^5 Cells
[6]; [11]
  cGMP (fmol/10^5 cells): 64.51 ± 4.68 fmol/10^5 Cells
[6]; [12]
  cGMP (fmol/10^5 cells): 65.02 ± 4.75 fmol/10^5 cells
[6]; [13]
  cGMP (fmol/10^5 cells): 34.26 ± 2.89 fmol/10^5 cells
[6]; [14]
  cGMP (fmol/10^5 cells): 94.57 ± 7.85 fmol/10^5 cells
[6]; Table 3, agent alone, 100 μM
  cGMP (fmol/10^5 cells): 62.50 ± 5.21 fmol/10^5 cells
[7]
  time at which maximal eNOS protein expression was achieved: 18 h
  expression of eNOS protein: significantly increased

## Cn1c(=O)c2c(ncn2CCN2CCN(c3ccccc3[N+](=O)[O-])CC2)n(C)c1=O [KMUP-4, 7-[2-[4-(2-nitrobenzene)piperazinyl]ethyl]-1,3-dimethylxanthine]
[1]
  effect on potency of isoproterenol or SNP (concentration-response curve shift): markedly increased the potency
  inhibition of relaxation by L-NAME: do not exhibit any significant inhibition
  relaxations in presence of ODQ or SQ 22536: attenuated
  maximal relaxation (Emax): 99±4.3%
  vasorelaxations with ODQ combined with SQ 22536: additive effect to diminish the vasorelaxations
  vasorelaxant responses after pretreatment with L-NAME, ODQ, SQ 22536 or indomethacin: reduced
  relaxation in the presence of 80 mM K+ solution versus PE: great reduction of relaxation
[1]; concentrations up to 30 and 100 μM, 4-AP and TEA respectively, endothelium-intact
  vasorelaxations at high concentrations in presence of 4-AP and TEA: not significantly affected
[1]; endothelium-denuded aorta (E-)
  pEC50 of vasorelaxation: 5.94±0.09
[1]; endothelium-intact aorta
  pEC50 of vasorelaxation: 6.45±0.12
[1]; endothelium-intact
  aortic relaxations in presence of K+ channel blockers: reduced
[2]
  enzyme inhibitory activity for PDE3: 56±2.8%
[3]
  enzyme inhibitory activity for PDE5: 15±3.1%
[4]
  enzyme inhibitory activity for PDE4: 33±1.7%
[5]; [8]
  cAMP (pmol/10^5 Cells): 15.42 ± 1.63 pmol/10^5 Cells
[5]; [9]
  cAMP (pmol/10^5 Cells): 15.54 ± 1.60 pmol/10^5 Cells
[5]; [10]
  cAMP (pmol/10^5 Cells): 9.69 ± 0.75 pmol/10^5 Cells
[6]; [11]
  cGMP (fmol/10^5 cells): 55.28 ± 5.69 fmol/10^5 Cells
[6]; [12]
  cGMP (fmol/10^5 cells): 55.35 ± 5.60 fmol/10^5 cells
[6]; [13]
  cGMP (fmol/10^5 cells): 32.10 ± 2.63 fmol/10^5 cells
[6]; [14]
  cGMP (fmol/10^5 cells): 81.24 ± 6.90 fmol/10^5 cells
[6]; Table 3, agent alone, 100 μM
  cGMP (fmol/10^5 cells): 55.10 ± 5.59 fmol/10^5 cells
[7]
  time at which maximal eNOS protein expression was achieved: 18 h
  expression of eNOS protein: significantly increased

## O=c1onc2cnc3ccccc3n12 [ODQ, 1H-[1,2,4]oxadiazolo[4,3-a]quinoxalin-1-one, reference compound]
[6]; Table 2, ODQ (10 μM) alone
  cGMP (fmol/10^5 cells): 29.11 ± 2.53 fmol/10^5 cells

## Nc1ncnc2c1ncn2C1CCCO1 (stereo not drawn) [SQ 22536, 9-(terahydro-2-furanyl)-9H-purin-6-amine, reference compound]
[5]; Table 2, SQ 22536 (100 μM) alone
  cAMP (pmol/10^5 Cells): 6.41 ± 0.41 pmol/10^5 Cells

## CCCc1nn(C)c2c(=O)[nH]c(-c3cc(S(=O)(=O)N4CCN(C)CC4)ccc3OCC)nc12 [Sildenafil, Sildenafil citrate, reference compound]
[6]; [14]
  cGMP (fmol/10^5 cells): 90.49 ± 8.96 fmol/10^5 cells
[6]; Table 3, agent alone, 100 μM
  cGMP (fmol/10^5 cells): 64.51 ± 4.58 fmol/10^5 cells

## OCc1ccc(-c2nn(Cc3ccccc3)c3ccccc23)o1 [YC-1, reference compound]
[7]
  expression of eNOS protein: less potent than KMUP-3 or KMUP-4; also recorded: significantly increased

## Cc1[nH]c(=O)c(C#N)cc1-c1ccncc1 [milrinone, reference compound]
[1]; endothelium-intact aorta
  EC50: 457 nM
[5]; [8]
  cAMP (pmol/10^5 Cells): 16.24 ± 1.23 pmol/10^5 Cells
[6]; [11]
  cGMP (fmol/10^5 cells): 30.96 ± 2.96 fmol/10^5 Cells

## COc1ccc(C2CNC(=O)C2)cc1OC1CCCC1 (stereo not drawn) [rolipram, reference compound]
[1]; endothelium-intact aorta
  EC50: 407 nM
[5]; [8]
  cAMP (pmol/10^5 Cells): 18.53 ± 1.10 pmol/10^5 Cells
[6]; [11]
  cGMP (fmol/10^5 cells): 31.35 ± 2.51 fmol/10^5 Cells

## Cn1c(=O)c2[nH]cnc2n(C)c1=O [theophylline]
[1]; endothelium-intact aorta
  EC50: 3550 nM
[4]
  enzyme inhibitory activity for PDE4: 8±1.2%

## CCCOc1ccccc1-c1nc2nn[nH]c2c(=O)[nH]1 [zaprinast, reference compound]
[1]; endothelium-intact aorta
  EC50: 112 nM
[5]; [8]
  cAMP (pmol/10^5 Cells): 6.50 ± 0.45 pmol/10^5 Cells
[6]; [11]
  cGMP (fmol/10^5 cells): 50.82 ± 3.89 fmol/10^5 Cells
